# Test results from ChEMBL document CHEMBL6096721, “Discovery of Selenium-Containing Derivatives as Potent and Orally Bioavailable GLP-1R Agonists” (J Med Chem, 2025).
# Active and inactive are the calls of the source. The calls are words filed in the database; no cut-off is given here.
# Assays:
# [1] = molecular target: T1, Glucagon-like peptide 1 receptor (Homo sapiens, UniProt P43220); assay: Binding affinity to human GLP-1R assessed as association rate constant by SPR analysis; conditions: filed as agonist
# T1 sequence (P43220 whole entry): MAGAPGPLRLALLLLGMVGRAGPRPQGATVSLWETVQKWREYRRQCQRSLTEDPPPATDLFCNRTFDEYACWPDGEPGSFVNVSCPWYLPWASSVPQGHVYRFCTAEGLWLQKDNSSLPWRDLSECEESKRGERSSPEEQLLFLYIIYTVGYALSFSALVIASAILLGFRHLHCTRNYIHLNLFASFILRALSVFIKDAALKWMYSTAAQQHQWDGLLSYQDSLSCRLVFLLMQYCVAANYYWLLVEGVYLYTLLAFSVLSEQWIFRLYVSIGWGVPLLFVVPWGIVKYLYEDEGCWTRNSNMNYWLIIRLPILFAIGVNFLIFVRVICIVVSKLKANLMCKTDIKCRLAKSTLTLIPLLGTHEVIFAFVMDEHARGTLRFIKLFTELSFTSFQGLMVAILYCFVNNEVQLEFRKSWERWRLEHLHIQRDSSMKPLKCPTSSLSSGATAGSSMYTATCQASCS
# [2] = test system: Mus musculus; assay: Antidiabetic activity in human GLP-1R knockin male mouse model assessed as reduction in blood glucose level at 2 mg/kg, IG preadministered with compound for 1 hrs followed by glucose administration for 3 hrs by oral glucose tolerance test; assay type: functional, organism-based; conditions: time 4.0 hrs
# [3] = test system: Mus musculus; assay: (§1) Antidiabetic activity in human GLP-1R knockin male mouse model assessed as reduction in blood glucose level at 2 mg/kg, IG preadministered with compound for 1 hrs followed by first dose of glucose administration for 3 hrs and measured after 300 mins of second glucose administration by oral glucose tolerance test; assay type: functional, organism-based; conditions: time 540.0 min
# [4] = test system: Mus musculus; assay: Appetite suppressing activity in human GLP-1R knockin male mouse model assessed as reduction in food intake at 30 mg/kg, sc measured after 2.5 to 12 hrs; assay type: functional, organism-based; conditions: time 2.5-12 hrs
# [5] = test system: Mus musculus; assay: Appetite suppressing activity in human GLP-1R knockin male mouse model assessed as reduction in food intake at 30 mg/kg, sc measured at 12 to 24 hrs (light cycle); assay type: functional, organism-based; conditions: time 12-24 hrs
# [6] = molecular target: T1, Glucagon-like peptide 1 receptor; assay: Partial agonist activity at LgBit-tagged GLP-1R (unknown origin) transfected in HEK293 cells co-transfected with Smbit-tagged beta-arrestin-1 assessed as beta-arrestin recruitment incubated for 5 mins by envision microplate reader analysis; assay type: functional, cell-based
# [7] = molecular target: T1, Glucagon-like peptide 1 receptor; assay: Partial agonist activity at LgBit-tagged GLP-1R (unknown origin) transfected in HEK293 cells co-transfected with Smbit-tagged beta-arrestin-1 assessed as beta-arrestin recruitment by measuring maximal efficacy incubated for 5 mins by envision microplate reader analysis relative to control; assay type: functional, cell-based
# [8] = molecular target: T1, Glucagon-like peptide 1 receptor; assay: Binding affinity to human GLP-1R assessed as dissociation rate constant (Kd) by SPR analysis
# [9] = molecular target: T1, Glucagon-like peptide 1 receptor; assay: Binding affinity to human GLP-1R assessed as dissociation constant (KD) by SPR analysis
# [10] = Cmax in male ICR mouse at 2 mg/kg, iv measured after 24 hrs by LC-MS/MS analysis; assay type: ADME, organism-based; conditions: in vivo
# [11] = AUC (0 to t) in male ICR mouse at 2 mg/kg, iv measured after 24 hrs by LC-MS/MS analysis; assay type: ADME, organism-based; conditions: in vivo
# [12] = Half-life in male ICR mouse at 2 mg/kg, iv measured after 24 hrs by LC-MS/MS analysis; assay type: ADME, organism-based; conditions: in vivo
# [13] = MRT (0 to t) in male ICR mouse at 2 mg/kg, iv measured after 24 hrs by LC-MS/MS analysis; assay type: ADME, organism-based; conditions: in vivo
# [14] = Apparent volume of distribution in male ICR mouse at 2 mg/kg, iv measured after 24 hrs by LC-MS/MS analysis; assay type: ADME, organism-based; conditions: in vivo, read-out: Vz
# [15] = Clearance in male ICR mouse at 2 mg/kg, iv measured after 24 hrs by LC-MS/MS analysis; assay type: ADME, organism-based; conditions: in vivo
# [16] = Cmax in male ICR mouse at 10 mg/kg, po measured after 24 hrs by LC-MS/MS analysis; assay type: ADME, organism-based; conditions: in vivo
# [17] = Tmax in male ICR mouse at 10 mg/kg, po measured after 24 hrs by LC-MS/MS analysis; assay type: ADME, organism-based; conditions: in vivo
# [18] = AUC (0 to t) in male ICR mouse at 10 mg/kg, po measured after 24 hrs by LC-MS/MS analysis; assay type: ADME, organism-based; conditions: in vivo
# [19] = Half-life in male ICR mouse at 10 mg/kg, po measured after 24 hrs by LC-MS/MS analysis; assay type: ADME, organism-based; conditions: in vivo
# [20] = MRT (0 to t) in male ICR mouse at 10 mg/kg, po measured after 24 hrs by LC-MS/MS analysis; assay type: ADME, organism-based; conditions: in vivo
# [21] = Oral bioavailability in male ICR mouse at 10 mg/kg measured after 24 hrs by LC-MS/MS analysis; assay type: ADME, organism-based; conditions: in vivo
# [22] = Protein binding in mouse plasma at 2 uM; assay type: ADME, cell-free; conditions: read-out: PPB (converted)
# [23] = Protein binding in mouse plasma at 2 uM assessed as unbound fraction; assay type: ADME, cell-free
# [24] = Unbound Cmax in male ICR mouse at 10 mg/kg, po measured after 24 hrs by LC-MS/MS analysis; assay type: ADME, organism-based; conditions: in vivo
# [25] = Subacute toxicity in male BALB/c mouse assessed as body weight loss at 150 mg/kg, po administered via gavage for 14 days; assay type: organism-based; conditions: in vivo, 336 h, time 14 day
# [26] = Subacute toxicity in male BALB/c mouse assessed as mortality at 150 mg/kg, po administered via gavage for 14 days; assay type: organism-based; conditions: in vivo, 336 h, time 14 day
# [27] = Subacute toxicity in male BALB/c mouse assessed as change in heart to body weight ratio at 150 mg/kg, po administered via gavage for 14 days; assay type: organism-based; conditions: in vivo, 336 h, time 14 day
# [28] = Subacute toxicity in male BALB/c mouse assessed as change in liver to body weight ratio at 150 mg/kg, po administered via gavage for 14 days; assay type: organism-based; conditions: in vivo, 336 h, time 14 day
# [29] = Subacute toxicity in male BALB/c mouse assessed as change in spleen to body weight ratio at 150 mg/kg, po administered via gavage for 14 days; assay type: organism-based; conditions: in vivo, 336 h, time 14 day
# [30] = Subacute toxicity in male BALB/c mouse assessed as change in lung to body weight ratio at 150 mg/kg, po administered via gavage for 14 days; assay type: organism-based; conditions: in vivo, 336 h, time 14 day
# [31] = Subacute toxicity in male BALB/c mouse assessed as change in kidney to body weight ratio at 150 mg/kg, po administered via gavage for 14 days; assay type: organism-based; conditions: in vivo, 336 h, time 14 day
# [32] = Subacute toxicity in male BALB/c mouse assessed as pathologic change in heart at 150 mg/kg, po administered via gavage for 14 days by H and E staining based analysis; assay type: organism-based; conditions: in vivo, 336 h, time 14 day
# [33] = Subacute toxicity in male BALB/c mouse assessed as pathologic change in lung at 150 mg/kg, po administered via gavage for 14 days by H and E staining based analysis; assay type: organism-based; conditions: in vivo, 336 h, time 14 day
# [34] = Subacute toxicity in male BALB/c mouse assessed as pathologic change in liver at 150 mg/kg, po administered via gavage for 14 days by H and E staining based analysis; assay type: organism-based; conditions: in vivo, 336 h, time 14 day
# [35] = Subacute toxicity in male BALB/c mouse assessed as pathologic change in spleen at 150 mg/kg, po administered via gavage for 14 days by H and E staining based analysis; assay type: organism-based; conditions: in vivo, 336 h, time 14 day
# [36] = Subacute toxicity in male BALB/c mouse assessed as pathologic change in kidney at 150 mg/kg, po administered via gavage for 14 days by H and E staining based analysis; assay type: organism-based; conditions: in vivo, 336 h, time 14 day
# [37] = Hepatotoxicity in male BALB/c mouse assessed as effect on ALT level at 150 mg/kg, po administered via gavage for 14 days; assay type: toxicity, organism-based; conditions: in vivo, 336 h, time 14 day
# [38] = Hepatotoxicity in male BALB/c mouse assessed as effect on AST level at 150 mg/kg, po administered via gavage for 14 days; assay type: toxicity, organism-based; conditions: in vivo, 336 h, time 14 day
# [39] = Nephrotoxicity in male BALB/c mouse assessed as effect on blood urea nitrogen level at 150 mg/kg, po administered via gavage for 14 days; assay type: toxicity, organism-based; conditions: in vivo, 336 h, time 14 day
# [40] = Nephrotoxicity in male BALB/c mouse assessed as decrease in creatinine level at 150 mg/kg, po administered via gavage for 14 days; assay type: toxicity, organism-based; conditions: in vivo, 336 h, time 14 day
# [41] = test system: Mus musculus; assay: as §1, with “270” for “300”; assay type: functional, organism-based; conditions: time 510.0 min
# [42] = Toxicity in human GLP-1R knockin male mouse model assessed as effect on AST level at 30 mg/kg, sc measured after 24 hrs; assay type: organism-based; conditions: in vivo
# [43] = Toxicity in human GLP-1R knockin male mouse model assessed as effect on ALT level at 30 mg/kg, sc measured after 24 hrs; assay type: organism-based; conditions: in vivo
# [44] = Toxicity in human GLP-1R knockin male mouse model assessed as effect on BUN level at 30 mg/kg, sc measured after 24 hrs; assay type: organism-based; conditions: in vivo
# [45] = Toxicity in human GLP-1R knockin male mouse model assessed as effect on creatinine level at 30 mg/kg, sc measured after 24 hrs; assay type: organism-based; conditions: in vivo
# [46] = Toxicity in human GLP-1R knockin male mouse model assessed as effect on heart pathology at 30 mg/kg, sc measured after 24 hrs by H and E staining based analysis; assay type: organism-based; conditions: in vivo
# [47] = Toxicity in human GLP-1R knockin male mouse model assessed as effect on lung pathology at 30 mg/kg, sc measured after 24 hrs by H and E staining based analysis; assay type: organism-based; conditions: in vivo
# [48] = Toxicity in human GLP-1R knockin male mouse model assessed as effect on liver pathology at 30 mg/kg, sc measured after 24 hrs by H and E staining based analysis; assay type: organism-based; conditions: in vivo
# [49] = Toxicity in human GLP-1R knockin male mouse model assessed as effect on spleen pathology at 30 mg/kg, sc measured after 24 hrs by H and E staining based analysis; assay type: organism-based; conditions: in vivo
# [50] = Toxicity in human GLP-1R knockin male mouse model assessed as effect on kidney pathology at 30 mg/kg, sc measured after 24 hrs by H and E staining based analysis; assay type: organism-based; conditions: in vivo
# [51] = Half-life in male rat at 1 mg/kg, iv; assay type: ADME, organism-based; conditions: in vivo
# [52] = Oral bioavailability in male rat at 5 mg/kg; assay type: ADME, organism-based; conditions: in vivo
compound,measurement,setting,value
SEMAGLUTIDE,Ka,[1],7.94 10^5/M.s
N#Cc1ccc(COc2cccc(C3CCN(Cc4nc5ccc(C(=O)O)cc5n4C[C@@H]4CCO4)CC3)n2)c(F)c1,Activity,[2],Active
same,Activity,[3],Active
same,Activity,[4],Active
same,Activity,[5],Active
COc1cc(C#N)ccc1C[Se]c1cccc(C2CCN(Cc3nc4ccc(C(=O)O)cc4n3C[C@@H]3CCO3)CC2)n1,EC50,[6],> 200 µM
same,Emax,[7],13%
same,Ka,[1],5.52 10^3/M.s
same,Kd,[8],5.53 10^-3/s
same,Kd,[9],1 µM
same,Cmax,[10],8110 ng/mL
same,AUC(0-t) at 24 h,[11],5460 ng·h/mL
same,half-life,[12],2.22 h
same,MRT last at 24 h,[13],0.77 h
same,Vd,[14],1.18 L/kg
same,clearance,[15],6.12 mL/min/kg
same,Cmax,[16],4960 ng/mL
same,Tmax,[17],0.5 h
same,AUC(0-t) at 24 h,[18],5540 ng·h/mL
same,half-life,[19],5.13 h
same,MRT last at 24 h,[20],1.91 h
same,bioavailability,[21],20.4%
same,fraction unbound at 2 µM,[22],0.02
same,fraction unbound at 2 µM,[23],0.02
same,fCmax,[24],99.21 ng/mL
same,Activity,[25],Non-toxic
same,Activity,[26],Non-toxic
same,Activity,[27],Non-toxic
same,Activity,[28],Non-toxic
same,Activity,[29],Non-toxic
same,Activity,[30],Non-toxic
same,Activity,[31],Non-toxic
same,Activity,[32],Non-toxic
same,Activity,[33],Non-toxic
same,Activity,[34],Non-toxic
same,Activity,[35],Non-toxic
same,Activity,[36],Non-toxic
same,Activity,[37],Non-toxic
same,Activity,[38],Non-toxic
same,Activity,[39],Non-toxic
same,Activity,[40],Toxic
same,Activity,[2],Active
same,Activity,[41],Active
same,Activity,[4],Active
same,Activity,[5],Active
same,Activity,[42],Non-toxic
same,Activity,[43],Non-toxic
same,Activity,[44],Non-toxic
same,Activity,[45],Non-toxic
same,Activity,[46],Non-toxic
same,Activity,[47],Non-toxic
same,Activity,[48],Non-toxic
same,Activity,[49],Non-toxic
same,Activity,[50],Non-toxic
N#Cc1ccc(C[Se]c2cccc(C3CCN(Cc4nc5ccc(C(=O)O)cc5n4C[C@@H]4CCO4)CC3)n2)c(F)c1,half-life,[51],0.47 h
same,bioavailability,[52],23.4%
